# Measured values from paper PMC5291514, “Structure activity relationship and modeling studies of inhibitors of lysine specific demethylase 1” (PLoS ONE, 2017).
# Experiments:
# [1] = target: T1, recombinant human LSD1 (Homo sapiens, UniProt O60341); assay: LSD1 enzyme inhibition, HRP-coupled Amplex red assay; assay type: biochemical; settings: for Selectivity index for LSD1: LSD1 versus MAO-A and -B; for fold less active against LSD1 than 10: comparator compound 10; for selectivity for LSD1 inhibition: LSD1 over MAO-A/-B; for fold more active against LSD1 than compound 24: comparator compound 24
# T1 construct: Human LSD1 catalytic domain, consisting of residues 172–833; GST (N); made in house; host or cells: Escherichia coli BL21-CodonPlus
# Description: Human LSD1 catalytic domain, consisting of residues 172–833, was expressed in Escherichia coli BL21-CodonPlus strain (Agilent) as a GST fusion protein, by using a pGEX-KG vector. Briefly, the cells were grown to late log phase at 37°C and then were induced overnight with 0.2 mM IPTG at 25°C. Cells were harvested and lysed by French Press in PBS buffer and the supernatant was subjected to an affinity column chromatography using the glutathione sepharose resin. The eluted LSD1 fractions were further purified with ~90% purity by gel filtration on a Superdex 200 column (GE healthcare).
# Horseradish peroxidase (HRP)-coupled assay was used for the evaluation of the inhibitors, based on the reaction rate (i.e., amount of the product H2O2) being quantitatively determined by adding HRP and a HRP fluorescence substrate Amplex red.[20] 30 nM LSD1 was incubated with increasing concentrations of a compound in 50 mM phosphate buffer (pH = 7.0 containing 0.01% Brij-35) for 30 min at 25°C. […] The final volume of the reaction is 60 μL. Upon 20 min incubation, 60 μL solution containing HRP (0.01 unit) and Amplex red (80 μM) was added to quench the reaction. The fluorescence of each well was then determined using a Beckman DTX-880 microplate reader (excitation at 535; emission at 595 nm). Data were imported into Prism 5.0 (GraphPad) and the IC50 values were calculated by using the sigmoidal dose response curve fitting in the software. The reported IC50s were the mean values of at least three independent experiments.
# [2] = target: T2, human MAO-B (Homo sapiens, UniProt P27338); assay: Inhibition of MAO-B, MAO-Glo assay kit; assay type: biochemical; settings: Table 2; 100 nM MAO-B, 60 min
# T2 construct: purchased Sigma
# T2 sequence (P27338 1-520): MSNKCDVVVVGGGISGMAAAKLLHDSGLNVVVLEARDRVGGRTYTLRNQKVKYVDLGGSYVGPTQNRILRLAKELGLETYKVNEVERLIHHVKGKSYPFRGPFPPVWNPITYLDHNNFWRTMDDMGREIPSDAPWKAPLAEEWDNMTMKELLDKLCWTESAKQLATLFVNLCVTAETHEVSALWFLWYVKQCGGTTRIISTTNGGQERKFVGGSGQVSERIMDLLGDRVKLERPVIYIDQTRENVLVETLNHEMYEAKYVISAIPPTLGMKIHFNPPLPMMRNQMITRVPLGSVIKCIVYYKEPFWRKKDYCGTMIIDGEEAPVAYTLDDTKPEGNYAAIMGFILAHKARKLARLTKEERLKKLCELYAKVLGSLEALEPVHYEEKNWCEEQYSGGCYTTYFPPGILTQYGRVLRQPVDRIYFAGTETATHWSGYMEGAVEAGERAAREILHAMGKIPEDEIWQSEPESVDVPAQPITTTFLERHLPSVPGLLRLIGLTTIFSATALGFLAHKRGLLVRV
# Description: (§1) Inhibition of MAO-A and -B was determined using MAO-Glo assay kit (Promega). Following the manufacturer’s protocol, assays were performed in 384 well white plates (Corning) in the presence of 100 nM MAO-A/-B (Sigma) and MAO substrate. The final volume of each reaction mixture was 20 μL. Reactions were quenched after 60 min by adding reconstituted luciferin detection reagent (20 μL/well). 20 min after addition of detection reagent, the plate was measured in luminescence mode using Beckman DTX-880 microplate reader. IC50 calculation was done similarly.
# [3] = target: T3, human MAO-A (Homo sapiens, UniProt P21397); assay: Inhibition of MAO-A, MAO-Glo assay kit; assay type: biochemical; settings: Table 2; 100 nM MAO-A, 60 min
# T3 construct: purchased Sigma
# T3 sequence (P21397 1-527): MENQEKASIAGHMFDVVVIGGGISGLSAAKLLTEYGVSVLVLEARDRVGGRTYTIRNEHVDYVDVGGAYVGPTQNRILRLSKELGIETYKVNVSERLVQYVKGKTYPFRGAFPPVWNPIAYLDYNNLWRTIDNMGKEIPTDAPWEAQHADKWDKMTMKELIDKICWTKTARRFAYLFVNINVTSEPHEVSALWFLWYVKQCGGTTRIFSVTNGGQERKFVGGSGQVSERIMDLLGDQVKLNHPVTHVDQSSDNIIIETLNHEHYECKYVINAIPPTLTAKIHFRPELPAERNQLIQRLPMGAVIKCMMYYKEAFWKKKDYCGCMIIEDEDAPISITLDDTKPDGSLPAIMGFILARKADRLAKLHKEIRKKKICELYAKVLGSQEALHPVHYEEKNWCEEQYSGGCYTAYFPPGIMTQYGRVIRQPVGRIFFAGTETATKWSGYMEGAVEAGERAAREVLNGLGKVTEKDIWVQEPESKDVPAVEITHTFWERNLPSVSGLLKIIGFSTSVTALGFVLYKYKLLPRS
# Description: as §1
# [4] = target: MAO-A and -B; assay: Inhibition of MAO-A/-B, MAO-Glo assay kit, one range given over both enzymes; assay type: biochemical, human; settings: range over both enzymes and the named compounds; read-out: IC50 against MAO-A and -B
# Description: as §1
# [5] = Table 1, 30 nM LSD1, 30 min preincubation, 10 μM H3K4Me2 peptide
smiles,measurement,setting,value
CC(=O)NC1CC1c1ccc(Br)cc1 (racemic) [Compound 22],IC50,[1]; [5],15400 nM
"CN1CCN(C(=O)CNC2CC2c2ccc(Br)cc2)CC1 (racemic) [Compound 3, reference compound]",IC50,[1]; [5],35 nM
same,IC50,[1]; Table 2,35 nM
same,Selectivity index for LSD1,[1]; Table 2,>208
same,IC50,[2],16.3 µM
same,IC50,[3],7.3 µM
"NNC1CC1c1ccccc1 (stereo not drawn) [Compound 31, Trans-phenyl cyclopropyl hydrazine]",IC50,[1]; [5],5800 nM
same,Selectivity index for LSD1,[1]; Table 2,>7
same,IC50,[2],87 µM
same,IC50,[3],40.7 µM
O=C(CNC1CC1c1ccc(Br)cc1)N1CCCCC1 (racemic) [Compound 11],IC50,[1]; [5],620 nM
same,IC50,[1]; Table 2,620 nM
same,Selectivity index for LSD1,[1]; Table 2,<0.82
same,fold less active against LSD1 than 10,[1],~ 10 ×
same,IC50,[2],0.51 µM
same,IC50,[3],0.26 µM
Nc1ccc(CNC2CC2c2ccc(Br)cc2)cc1 (racemic) [Compound 19],IC50,[1]; [5],> 100000 nM
COc1ccccc1C=NC1CC1c1ccc(Br)cc1 (racemic) [Compound 26],selectivity for LSD1 inhibition,[1],no LSD1 selectivity was observed
same,IC50,[1]; [5],740 nM
same,IC50,[1]; Table 2,740 nM
same,Selectivity index for LSD1,[1]; Table 2,<0.54
same,fold more active against LSD1 than compound 24,[1],> 10 ×
same,IC50,[2],0.4 µM
same,IC50,[3],0.3 µM
CN(C)c1ccc(CNC2CC2c2ccc(Br)cc2)cc1 (racemic) [Compound 20],IC50,[1]; [5],71000 nM
O=C(CNC1CC1c1ccccc1)N1CCNCC1 (racemic) [Compound 13],IC50,[1]; [5],190 nM
same,fold more active against LSD1 than 14,[1]; comparator compound 14,~ 7 fold
Brc1ccc(C2CC2N=Cc2ccccc2)cc1 (racemic) [Compound 24],IC50,[1]; [5],15600 nM
O=C(CNC1CC1c1ccc(Br)cc1)N1CCNCC1 (racemic) [Compound 10],IC50,[1]; [5],64 nM
same,IC50,[1]; Table 2,64 nM
same,Selectivity index for LSD1,[1]; Table 2,>280
same,IC50,[2],23.1 µM
same,IC50,[3],18.1 µM
CN1CCN(C(=O)CNC2CC2c2ccc(-c3ccc(Cl)nc3)cc2)CC1 (racemic) [Compound 4],IC50,[1]; [5],150 nM
Brc1ccc(C2CC2NCC2CCNCC2)cc1 (racemic) [Compound 15],IC50,[1]; [5],260 nM
Oc1ccc(CNC2CC2c2ccc(Br)cc2)cc1 (racemic) [Compound 18],IC50,[1]; [5],94000 nM
O=C(CNNC1CC1c1ccccc1)N1CCNCC1 (racemic) [Compound 32],selectivity for LSD1 inhibition,[1],> 150 fold
same,IC50,[1]; [5],670 nM
same,IC50,[1]; Table 2,670 nM
same,Selectivity index for LSD1,[1]; Table 2,>145
same,fold less active against LSD1 than cyclopropylamine analog 13,[1]; comparator compound 13,~ 3 ×
same,fold enhanced LSD1 activity over 31,[1]; comparator compound 31,~ 9 fold
same,IC50,[2],370 µM
same,IC50,[3],97.5 µM
Brc1ccc(C2CC2NCc2ccccc2)cc1 (stereo not shown) [Compound 17],IC50,[1]; [5],5000 nM
COc1cccc(C=NC2CC2c2ccc(Br)cc2)c1 (racemic) [Compound 27],IC50,[1]; [5],900 nM
same,fold more active against LSD1 than compound 24,[1],> 10 ×
CN1CCN(C(=O)CNC2CC2c2cccc(Br)c2)CC1 (racemic) [Compound 6],IC50,[1]; [5],> 100000 nM
CN1CCN(C(=O)CNC2CC2c2ccccc2Br)CC1 (racemic) [Compound 5],IC50,[1]; [5],> 100000 nM
NC1CC1c1ccc(OCc2ccccc2)cc1 (racemic) [Compound 7],IC50,[4],170 to 3100 nM
same,fold less active against LSD1 than the corresponding compounds 1–3,"[1]; 7 vs 1, 8 vs 2, 9 vs 3",92 fold
same,IC50,[1]; [5],910 nM
same,IC50,[1]; Table 2,910 nM
same,Selectivity index for LSD1,[1]; Table 2,<0.38
same,IC50,[2],0.35 µM
same,IC50,[3],0.17 µM
Brc1ccc(C2CC2N=Cc2ccncc2)cc1 (racemic) [Compound 30],LSD1 inhibitory activity in words,[1],only modest activities
same,IC50,[1]; [5],14000 nM
"CN1CCN(C(=O)CNCC#Cc2ccccc2)CC1 [Compound 35, 1-(4-methylpiperazin-1-yl)-2-((3-phenylprop-2-yn-1-yl)amino)ethan-1-one]",IC50,[1]; [5],36400 nM
O=C(CNC1CC1c1ccccc1)N1CCCCC1 (racemic) [Compound 14],IC50,[1]; [5],1300 nM
"CN1CCN(C(=O)CNC2CC2c2ccc(-c3ccc(F)nc3)cc2)CC1 (racemic) [Compound 2, reference compound]",IC50,[1]; [5],77 nM
same,IC50,[1]; Table 2,77 nM
same,Selectivity index for LSD1,[1]; Table 2,">1,500"
same,IC50,[2],480 µM
same,IC50,[3],120 µM
Brc1ccc(C2CC2NCc2ccncc2)cc1 (racemic) [Compound 21],IC50,[1]; [5],> 100000 nM
Brc1ccc(C=NC2CC2c2ccc(Br)cc2)cc1 (racemic) [Compound 25],IC50,[1]; [5],1200 nM
same,fold more active against LSD1 than compound 24,[1],> 10 ×
CN(C)c1ccc(C=NC2CC2c2ccc(Br)cc2)cc1 (racemic) [Compound 29],LSD1 inhibitory activity in words,[1],only modest activities
same,IC50,[1]; [5],11000 nM
O=C(CNC1CC1c1ccc(Br)cc1)N1CCCC1 (racemic) [Compound 12],IC50,[1]; [5],3600 nM
same,fold less active against LSD1 than 10,[1],~56 ×
O=C(Nc1ccccc1)NC1CC1c1ccc(Br)cc1 (racemic) [Compound 23],IC50,[1]; [5],7400 nM
Brc1ccc(C2CC2NNCC2CCNCC2)cc1 (racemic) [Compound 34],IC50,[1]; [5],1700 nM
same,fold less active against LSD1 than cyclopropylamine analog 15,[1]; comparator compound 15,~ 7 ×
O=C(NNC1CC1c1ccccc1)N1CCNCC1 (racemic) [Compound 33],IC50,[1]; [5],84000 nM
